Results reported in US10508111B2, “6-[5-amino-6-(2-ethoxyethoxy)-imidazo[4,5-B]pyridin-3-yl]-nicotinonitrile derivatives and their use as IRAK inhibitors” (GALAPAGOS NV, priority 2015, dated 2019).

Experiments:
human IRAK-4 = target: T1, human IRAK-4 (Homo sapiens, UniProt Q9NWZ3); experiment: IC50 determination for human IRAK-4, radioactive filter plate assay; type: biochemical; conditions: RIP140 substrate, 1 μM ATP + [γ-33P]ATP, 30° C., 45 min; read-out: hIRAK-4 IC50
T1 construct: purchased Carna Biosciences 09-145
T1 sequence (Q9NWZ3 1-460): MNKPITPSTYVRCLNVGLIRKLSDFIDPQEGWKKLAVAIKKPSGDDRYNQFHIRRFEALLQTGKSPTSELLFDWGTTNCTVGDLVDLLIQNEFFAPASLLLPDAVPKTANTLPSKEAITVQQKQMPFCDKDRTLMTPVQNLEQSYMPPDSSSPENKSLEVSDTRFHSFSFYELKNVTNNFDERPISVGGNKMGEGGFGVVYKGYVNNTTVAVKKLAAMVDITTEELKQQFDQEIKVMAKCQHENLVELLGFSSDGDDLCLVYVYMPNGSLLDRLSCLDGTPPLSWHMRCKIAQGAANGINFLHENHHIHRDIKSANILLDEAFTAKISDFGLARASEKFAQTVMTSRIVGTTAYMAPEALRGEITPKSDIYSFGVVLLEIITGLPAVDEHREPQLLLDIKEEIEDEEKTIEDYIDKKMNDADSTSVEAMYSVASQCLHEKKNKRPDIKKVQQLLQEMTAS
Experimental: The IC50 value for IRAK-4 is determined in a radioactive filter plate assay. The principle of the assay consists in the measurement of incorporated ^33P into the RIP140 substrate upon phosphorylation by the enzyme IRAK-4 using [γ-^33P]ATP and ATP. Unincorporated ^33P is removed by loading the samples on a filter plate (using a harvester, PerkinElmer) and 6 subsequent washing steps. Incorporated ^33P in RIP140 is measured by a scintillation counter (Topcount, PerkinElmer) after addition of MicroScint™-20 (PerkinElmer, 6013621) to the filter plates.
5 μL of a water dilution series of test compound (starting from 20 μM or 6.6 μM highest concentration), from a 100% DMSO stock solution, 1/5 dilution, is added to the wells (final DMSO concentration of 1% in reaction assay). IRAK-4 (Carna Biosciences, 09-145) and RIP140 (SEQ ID1, cf. Table VII) are used at a final concentration of 10 ng/mL and 4 μM, respectively. The enzyme and substrate are diluted in 25 mM Tris pH 7.5, 0.025% Triton X-100, 5 mM MnCl2, and 2 mM DTT to a total volume of 11 μL. The reaction is started by addition of 9 μL of 1 μM ATP (Sigma, A6419-5G)+0.25 μCi [γ-^33P]ATP (PerkinElmer, NEG602K001MC), diluted in the same buffer as enzyme and substrate. The mixture is incubated at 30° C. for 45 min. The reaction is terminated by adding 25 μL of 150 mM phosphoric acid (VWR, 1.00573.1000). Samples are transferred to filter plates and incorporated radioactivity is measured using a scintillation counter.
10 μM staurosporine (1% DMSO) is used as positive control (100% inhibition); vehicle (water+1% DMSO) as negative control (0% inhibition).

[1] = system: IL-1β triggered MMP13 release in SW1353 cells; experiment: SW1353 cellular selectivity assay, IL-1β trigger, MMP13 readout; type: cell-based, human; conditions: IL-1β trigger 1 ng/mL; for IC50: Homo sapiens; for IL-1β trigger MMP13 PIN at 20 μM: percent inhibition at 20 μM compound
Text: The aim of this assay is to evaluate the selectivity of compounds of the invention for the activated TLR/IRAK-4 pathway in an in vitro human cellular assay setting. SW1353 cells are from a chondrocytic cell line and are responsive to both the interleukin 1 (IL-1) and the TNFα cytokine triggers. Both cytokine triggers induce the expression of interleukin 6 (IL-6) and MMP13 by these cells. IL-6 and MMP13 releases are used as readouts in this assay and represent a measure for the level of inhibition of the TLR/IRAK-4 pathway by the tested compound.
SW1353 cells are cultured in DMEM supplemented with 10% FBS and 1% Penicillin/Streptomycin. Cells are incubated at 37° C. in a humidified atmosphere of 5% CO2 and subcultured twice a week. During subculturing, trypsin-EDTA is used to detach the cells, followed by a neutralization step with cell culture medium. After centrifugation (1,000 rpm during 5 min), the pellet is resuspended in cell culture medium and cells are counted using an automated cell counter (Invitrogen Countess™).
Cells are used at passage 16 and plated at a density of 15,000 cells per well in 120 μL cell culture medium in 96-well culture plates. Cells are allowed to attach during overnight incubation.
SW1353 cells are pre-incubated with test compound by addition of 15 μL of 10× concentrated compound solution for 2 h at 37° C. and 5% CO2. The compounds are tested at different concentrations and prepared by 3-fold serial dilutions from the 10 mM stock solution in DMSO followed by a 1/50 dilution step in cell culture medium. Final test concentrations in the assay start from 20 μM, with subsequent 3-fold serial dilutions with equal final DMSO concentrations of 0.2%. After the compound pre-incubation step, the SW1353 cells are triggered by addition of 15 μL of 10× concentrated IL-1f (Peprotech, 200-01B) or TNFα trigger (Peprotech, 300-01A) to the wells with final assay volume of 150 μL per well and final trigger concentration of 1 ng/mL and 10 ng/mL, respectively. Negative controls are adjusted with equal DMSO concentrations without trigger. The assay plates are then incubated in a humidified incubator at 37° C. and 5% CO2. Cell supernatants are harvested 24 h and 48 h later by transferring the cell medium into a V-bottom polypropylene 96-well plate and stored at −80° C. until ELISA readout.
The levels of secreted MMP13 in the cell supernatants are quantified in an antibody capture activity assay. […] After incubation for 1 h at 37° C., fluorescence of the converted substrate is measured with a PerkinElmer EnVision® (excitation wavelength: 320 nm, emission wavelength: 405 nm).
All controls are measured within the linear range of the human IL-6 and MMP13 standard curve of the ELISA. […]

IC50 (human IRAK-4) [nM]	IC50 [1] [nM]	SMILES	IL-1β trigger MMP13 PIN at 20 μM [1]
6.35	36	N#Cc1ccc(-n2cnc3cc(OCCOCCO)c(NC4CCOCC4)nc32)nc1 [Compound 1, 6-[6-[2-(2-hydroxy-ethoxy)-ethoxy]-5-(tetrahydro-pyran-4-ylamino)-imidazo[4,5-b]pyridin-3-yl]-nicotinonitrile]	[81%]
0.95	29	C[C@]1(O)CC[C@@H](Nc2nc3c(cc2OCCOCCO)ncn3-c2ccc(C#N)cn2)CC1 [Compound 12, 6-[6-[2-(2-hydroxyethoxy)ethoxy]-5-[((cis-1,4)-4-hydroxy-4-methylcyclohexyl)amino]imidazo[4,5-b]pyridin-3-yl]pyridine-3-carbonitrile]	[75%]
